The values that follow come from the NIST ThermoML archive (doi:10.1016/j.jct.2016.11.017).

Each structure is given as a SMILES string. Numbers after ± are expanded uncertainties.

The conditions of data set [1]: Crystal; DTA.
Data set [2] in a line: Molar enthalpy of transition or fusion. As to conditions: Crystal; DSC.

For `C[C@@H]1CC[C@@]2(OC1)O[C@H]1C[C@H]3[C@@H]4CC=C5C[C@@H](O)CC[C@]5(C)[C@H]4CC[C@]3(C)[C@H]1[C@@H]2C` [Diosgenin], in data set [1], the Normal melting temperature stood at 201.2 ± 0.4 °C. For the same molecule, the “Molar enthalpy of transition or fusion” value in data set [2] turned out to be 12.5 ± 0.335 kcal/mol.

On to `C[C@]12CC[C@@H]3c4ccc(O)cc4CC[C@H]3[C@@H]1C[C@@H](O)[C@@H]2O` [Estriol], for which, in data set [1], the Normal melting temperature is 280.1 ± 0.4 °C. In addition, the “Molar enthalpy of transition or fusion” value in data set [2] turned out to be 10.2 ± 0.287 kcal/mol.
